Measured values as given in patent US20150306108A1, “COMPOSITIONS OF ALDH1A1 INHIBITORS AND METHODS OF USE IN TREATING CANCER” (Indiana University Research & Technology Corporation, priority 2014, published 2015).
Where two headings read alike, the source gives them in different places.

Assays:
[1] = target: T1, ALDH1A1 (Homo sapiens, UniProt P00352); assay: ALDH1A1 aldehyde oxidation (dehydrogenase) activity assay, NADH formation at 340 nm; assay type: biochemical
T1 construct: made in house
T1 sequence (P00352 1-501): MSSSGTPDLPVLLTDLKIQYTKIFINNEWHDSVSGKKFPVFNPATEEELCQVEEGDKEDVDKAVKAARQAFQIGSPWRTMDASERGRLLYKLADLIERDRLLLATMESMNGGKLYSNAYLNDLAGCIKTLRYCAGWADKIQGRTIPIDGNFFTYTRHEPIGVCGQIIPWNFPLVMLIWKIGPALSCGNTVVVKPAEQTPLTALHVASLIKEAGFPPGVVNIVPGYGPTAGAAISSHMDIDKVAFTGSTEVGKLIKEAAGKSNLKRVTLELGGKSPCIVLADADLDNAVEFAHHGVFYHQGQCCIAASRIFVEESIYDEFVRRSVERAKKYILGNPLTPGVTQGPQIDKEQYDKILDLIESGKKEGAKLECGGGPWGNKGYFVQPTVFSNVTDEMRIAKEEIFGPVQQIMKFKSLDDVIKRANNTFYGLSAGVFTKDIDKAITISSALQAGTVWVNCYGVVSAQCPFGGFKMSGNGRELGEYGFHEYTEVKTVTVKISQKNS

[2] = target: T2, ALDH3A1 (Homo sapiens, UniProt P30838); assay: ALDH3A1 benzaldehyde oxidation activity assay; assay type: biochemical; conditions: Table 4; NI/NI(A) at 100 μM compound; read-out: IC50 in μM (SE) ALDH3A1
T2 construct: made in house
T2 sequence (P30838 1-453): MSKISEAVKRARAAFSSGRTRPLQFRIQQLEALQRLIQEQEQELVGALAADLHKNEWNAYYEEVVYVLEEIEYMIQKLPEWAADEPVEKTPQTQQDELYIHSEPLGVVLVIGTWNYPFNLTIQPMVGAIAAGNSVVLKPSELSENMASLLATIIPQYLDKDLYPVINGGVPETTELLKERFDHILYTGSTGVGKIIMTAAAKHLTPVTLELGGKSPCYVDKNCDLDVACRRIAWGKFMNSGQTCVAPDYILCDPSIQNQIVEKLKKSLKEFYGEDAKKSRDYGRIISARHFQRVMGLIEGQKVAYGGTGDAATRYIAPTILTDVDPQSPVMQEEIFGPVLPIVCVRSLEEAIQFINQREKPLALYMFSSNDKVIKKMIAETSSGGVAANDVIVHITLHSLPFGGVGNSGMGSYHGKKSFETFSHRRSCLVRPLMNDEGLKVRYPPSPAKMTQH
Description: Hits from the HTS were ordered from ChemDiv to determine if they had any effect on aldehyde oxidation and whether they were selective for ALDH1A1 compared to ALDH2 and ALDH3A1. Dehydrogenase activity of the three isoenzymes were assayed by monitoring the production of NADH at 340 nm (molar extinction coefficient of 6220 M^−1 cm^−1) on a Beckman DU-640 or Cary 300 Bio UV-Vis spectrophotometer for 2 to 3 minutes. For ALDH1A1 and ALDH2, the reaction contained 100-200 nM enzyme, 200 μM NAD^+, 100 μM propionaldehyde, and 1% DMSO in 50 mM Na^+ BES, pH 7.5 at room temperature. For ALDH3A1, the reaction contained 20 nM enzyme, 200 μM NAD^+, 300 μM benzaldehyde, and 1% DMSO in either 100 mM sodium phosphate or 50 mM Na^+ BES at pH 7.5 at room temperature.
For most compounds, 20 μM concentration was used for the selectivity assays. […] Following a 2 minute incubation of enzyme, compound, and NAD^+, the reaction was initiated by adding substrate. […] Data were fit to the four parameter EC50 equation using SigmaPlot (StatSys v12.3).
Dehydrogenase activity of purified recombinant ALDH1A1, ALDH1A2, ALDH1A3, ALDH1B1, ALDH2, and ALDH3A1 was assayed spectrophotometrically by monitoring the formation of NADH at 340 nm (molar extinction coefficient of 6220 M^−1 cm^−1) on a Beckman DU-640 or Cary 300 Bio UV-Vis spectrophotometer. Characterization of ALDH1A1 WT and ALDH1A1 G458N were performed by co-varying acetaldehyde and NAD^+ concentrations in reactions containing 150-300 nM enzyme, 50-500 μM or 20-200 μM acetaldehyde, and 50-500 μM NAD^+ in 50 mM sodium BES, pH 7.5 at 25° C. Reactions were initiated by adding enzyme. Selectivity of compounds for dehydrogenase activity of ALDH1A1, ALDH1A2, ALDH1A3, ALDH1B1 and ALDH2 were measured in a solution containing 100-200 nM enzyme, 200 μM NAD^+, 1% DMSO, and 100 μM propionaldehyde (non-saturating for all enzymes tested, except ALDH2) in 50 mM sodium BES. ALDH3A1 activity was measured under the following conditions: 25 nM enzyme, 200 μM NAD^+, 1% DMSO, and 300 μM benzaldehyde (˜KM) in either 100 mM sodium phosphate buffer, pH 7.5 or 50 mM sodium BES, pH 7.5. All assays were performed at 25° C. and were initiated by the addition of the aldehyde substrate following a 2 minute pre-incubation with compound and cofactor. Selectivity was initially tested using 20 μM compound, with ALDH1A1-selective modulators further tested using 100 μM compound. […] After a 2 minute pre-incubation with compound and NAD^+, all reactions were initiated by the addition of propionaldehyde. Data were fit to the four parameter EC50 equation using SigmaPlot (StatSys v12.3). The values represent the average of three independent experiments (each n=3). The mode of inhibition was determined via steady-state kinetics by co-varying inhibitor and substrate concentrations at fixed concentration of the second substrate. All reactions contained 100-150 nM ALDH1A1 and 1% DMSO in 50 mM sodium BES, pH 7.5 at 25° C. […] All data were fit to competitive, noncompetitive, uncompetitive, and mixed inhibition models using both single substrate-single inhibitor or tight binding inhibition programs in SigmaPlot (StatSys v12.3). The appropriate model was selected through analysis of goodness-of-fit and the residuals of those fits. The values represent the average of three independent experiments (each n=3) using at least two protein preps.
ALDH1A1, ALDH1A2, ALDH1A3, ALDH2, and ALDH3A1 were produced and purified as previously described. A highthroughput screen (HTS) of 64,000 compounds from the ChemDiv Corp. was performed to identify activators and inhibitors of ALDH1A1. The hydrolysis of para-nitrophenylacetate was used as a measure ALDH1A1 activity (see SM). Selectivity for closely related orthologs was tested at 20 and 100 μM using purified recombinant human ALDH1A1, ALDH1A2, ALDH1A3, ALDH2, and ALDH3A1. […]

[3] = target: T3, ALDH1A2 (Homo sapiens, UniProt O94788); assay: biochemical; assay type: biochemical; conditions: Table 4; NI/NI(A) at 100 μM compound; read-out: IC50 in μM (SE) ALDH1A2
T3 sequence (O94788 1-518): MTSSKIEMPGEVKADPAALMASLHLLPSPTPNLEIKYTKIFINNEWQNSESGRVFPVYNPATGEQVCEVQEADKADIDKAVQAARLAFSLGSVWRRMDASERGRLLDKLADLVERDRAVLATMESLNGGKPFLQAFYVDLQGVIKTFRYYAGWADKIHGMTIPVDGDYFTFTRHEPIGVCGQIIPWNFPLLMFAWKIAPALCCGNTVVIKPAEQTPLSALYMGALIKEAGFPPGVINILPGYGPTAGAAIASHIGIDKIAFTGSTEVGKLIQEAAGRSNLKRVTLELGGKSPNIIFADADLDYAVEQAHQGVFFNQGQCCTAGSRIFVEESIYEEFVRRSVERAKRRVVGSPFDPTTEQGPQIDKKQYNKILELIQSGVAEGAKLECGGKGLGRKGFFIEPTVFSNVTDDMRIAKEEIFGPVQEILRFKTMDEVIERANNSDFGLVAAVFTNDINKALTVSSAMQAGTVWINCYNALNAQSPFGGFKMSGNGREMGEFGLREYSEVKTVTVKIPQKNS

[4] = test system: IGROV1 cells; assay: Spheroid formation under low attachment culture conditions; assay type: cell-based, human; conditions: 50 μM, 7 days, low attachment
Description: Ovarian cancer cell lines or primary cells were seeded at a concentration of 25,000 cells/ml in Mammocult complete medium (StemCell Technologies) and ultra-low attachment plates (Corning, Corning, N.Y.). Spheroids were trypsinized every 7 days and re-plated to generate successive generations. To observe spheroid morphology, A2780, SKOV3, IGROV1, and primary cells were cultured in a rotating bioreactor (Synthecon, Houston, Tex.) until […] compact spheroids were visible (10-30 days). They were harvested, preserved with Histochoice MB Tissue Fixative (Amresco, Solon, Ohio) for 1 hour, and embedded in Immuno-bed resin (Polysciences, Warrington, Pa.). Two micron thick sections were cut on an ultramicrotome and stained with 0.1% methylene blue/0.15% basic fuchsin in 50% methanol.
Cell viability was measured by the trypan blue (ThermoScientific) exclusion test. Cell proliferation was quantified by the MTT assay. Spheroids were counted after centrifugation at 300×g for 5 minutes. All assays were performed in four replicates. Data are presented as means±SEM.

[5] = 100 μM propionaldehyde, 200 μM NAD+, mean/SEM of three independent assays, read-out: IC50 values with ALDH1A1 for compounds that inhibit dehydrogenase activity
[6] = list of inhibitors in summary and description, read-out: IC50 with the listed inhibitors of ALDH1A1 activity

| SMILES | IC50 [1, 5] [µM] | IC50 [1, 6] [µM] | other results |
| --- | --- | --- | --- |
| Cc1ccc(S(=O)(=O)NCC2CCC(C(=O)NCc3ccco3)CC2)cc1 (stereo not drawn) [CM307] | 0.57 | 0.57 |  |
| Cc1ccc(Cn2c(CN3CCN(c4ccccc4)CC3)nc3c2c(=O)n(C)c(=O)n3C)cc1 [CM025] |  |  | IC50 [2]: > 100 µM |
| CCC(C)NC(=O)C1(O)c2cc(Br)ccc2NC(O)N1c1ccc(Cl)cc1 (stereo not drawn) [CM020] | 0.45 | 0.45 |  |
| Cc1cccc(Cn2c(CN3CCN(C(=O)c4ccco4)CC3)nc3c2c(=O)n(C)c(=O)n3C)c1 [CM055] |  |  | IC50 [2]: > 100 µM; IC50 [3]: > 100 µM |
| C=CCc1cccc(CNc2nc3ccccc3n2CCC)c1O [CM010] | 1.3 | 1.3 |  |
| CCN(CC)c1ccc(C=O)cc1 [DEAB, diethylaminobenzaldehyde, reference compound] |  |  | formation of spheres [4]: completely inhibited |
| Cc1cc(C)c(S(=O)(=O)Nc2ccc(O)c(Cl)c2)cc1C [CM047] | 0.31 | 0.31 |  |
| CCOc1cc(S(=O)(=O)NCc2cccnc2)c(C)cc1C [CM009] | 5.3 | 5.3 |  |
| CCN1CCN(Cc2nc3c(c(=O)n(C)c(=O)n3C)n2CC(=O)c2ccccc2)CC1 [CM027] |  |  | IC50 ([1]; Table 4, NI/NI(A) at 100 μM compound, * <70% maximum inhibition, read-out: IC50 in μM (SE) ALDH1A1): 6.1 µM |
| COc1ccc(S(=O)(=O)N2N=C(c3cccc(NS(C)(=O)=O)c3)CC2c2ccco2)cc1 (stereo not drawn) [CM045] | 2.5 | 2.5 |  |
| CC(C)CCn1c(CN2CCC(C)CC2)nc2c1c(=O)n(C)c(=O)n2C [CM057] |  |  | IC50 [2]: > 100 µM |
| CC(C)CCn1c(CN2CCC(C(N)=O)CC2)nc2c1c(=O)n(C)c(=O)n2C [CM053] |  |  | IC50 [2]: > 100 µM |

The next lines start with results.

| IC50 [1, 5] [µM] | IC50 [1, 6] [µM] | SMILES | other results |
| --- | --- | --- | --- |
| 3.5 | 3.5 | CN1CCN(C(=O)c2ccc3c(c2)N(Cc2ccccc2)CCS3)CC1 [CM306] |  |
| 1.1 | 1.1 | Cc1ccc(-c2nnc(N3CCN(C)CC3)c3ccccc23)cc1C [CM001] |  |
| 23 |  | NC(=O)CSc1nc2c(sc3ccccc32)c(=O)n1CCCN1CCCC1 [CM037a] |  |
| 0.26 | 0.26 | Cc1nc2ccccc2c2oc(C(=O)N3CCCCC3)cc12 [CM038] | IC50 ([1]; propionaldehyde oxidation, values in nM, read-out: IC50 with ALDH1A1): < 0.3 µM |
